# Measured values reported in patent US9988430B2, “Stable GLP-1 based GLP-1/glucagon receptor co-agonists” (Novo Nordisk A/S, priority 2014, dated 2018).
# *1 amine or outer side, *2 acyl side, *3 side chain or, on linkers, in order; H or OH if unused. Where a SMILES comes first, the peptide text is derived from it. Side-chain parts run from the residue outwards. [ ]: non-standard residue; d: D form. The star is where a group is joined. C18 diacid = O=C(O)CCCCCCCCCCCCCCCCC(=O)*; γGlu = O=C(O)[C@H](CCC(=O)[*:2])N[*:1]; Desaminohistidyl = O=C(CCc1c[nH]cn1)*; AEEA = NCCOCCOCC(=O)O; Aib = CC(C)(N)C(=O)O
# Target: T1, human glucagon receptor (Homo sapiens, UniProt P47871)
# T1 construct: expressed in transfected cells; host or cells: membranes of BHK cells, clone BHK hGCGR A3*25
# Experiment: Assay (II)(b): glucagon receptor binding, [125I]-glucagon displacement, SPA on BHK membranes
# Conditions: displacement of [125I]-glucagon, membranes with human glucagon receptor; read-out: IC50 GlucagonR
# Experimental: Assay (II): GLP-1 and Glucagon Receptor Binding The purpose of this assay is to test the in vitro receptor binding activity of the GLP-1 derivatives of the invention. (b) Glucagon Receptor Binding The glucagon receptor (glucagonR) binding activity is a measure of affinity of a derivative for the human glucagon receptor. The glucagon receptor binding of each derivative were determined with competitive binding, displacing [^125I]-glucagon bound to glucagon receptors expressed in cell membranes associated with wheat germ agglutinin (WGA) scintillation proximity assay (SPA) beads. Each derivative was added in a series of concentrations to isolated membranes comprising the human glucagon receptor and displacement of the labelled ligand was monitored. The receptor binding was reported as the concentration at which half of the labelled ligand is displaced from the receptor, the IC^50 value. The following chemicals were used in the assay: DMEM w Glutamax (Gibco 61965-026), Pen/strep (Invitrogen 15140-122), G418 (Invitrogen 10131-027), Versene (Gibco 15040), 1 M Hepes (Gibco 15630), PBS (Invitrogen 14190-094), fetal calf serum (Invitrogen 16140-071), MgCl2 (Merck 1.05832.1000), EDTA (Invitrogen 15575-038), CaCl2 (Sigma, C5080), Tween 20 (Amresco 0850C335), ovalbumin (Sigma A5503), SPA particles (wheat germ agglutinin (WGA) SPA beads, Perkin Elmer RPNQ0001), [125I]-glucagon (produced in-house), OptiPlate™-96 (Packard 6005290). HME buffer consisted of 25 mM HEPES, 2 mM MgCl2 and 1 mM EDTA, and pH was adjusted to 7.4. Assay buffer consisted of 50 mM HEPES supplemented with 5 mM MgCl2, 1 mM CaCl2, 0.02% Tween 20 and 0.1% Ovalbumin, and pH was adjusted to 7.4. The cells used in this assay (clone BHK hGCGR A3*25) were BHK cells stable transfected with an expression plasmid comprising the cDNA encoding the human glucagon receptor. The cells were grown at 5% CO2 in DMEM, 10% fetal calf serum, 1% Pen/Strep (Penicillin/Streptomycin) and 1.0 mg/ml of the selection marker G418. To make a membrane preparation the cells were grown to approximately 80% confluence. The cells were washed twice in phosphate-buffered saline and harvested. The cells were pelleted using a brief centrifugation and the cell pellet was kept on ice. Lyse the cells by adding approx. 5 ml HME buffer, mix by pipetting and snap freeze in liquid nitrogen. Thaw quickly and add HME buffer to 10 ml. The cell pellet was homogenised with an ULTRA-THURRAX dispersing instrument for 20-30 seconds. The homogenate was centrifuged at 20.000×G, 4° C. for 10 minutes. The pellet was resuspended (homogenised) in 1-2 ml HME buffer. The protein concentration was determined. The membranes were aliquoted and snapfrozen in liquid nitrogen and stored at minus 80° C. • 1. For the receptor binding assay 50 μl of the assay buffer was added to each well of an assay plate. • 2. Test compounds were serially diluted to give the following concentrations: 8×10EE-7 M, 8×10EE-8 M, 8×10EE-9 M, 8×10EE-10 M, 8×10EE-11 M, 8×10EE-12 M and 8×10EE-13 M. Twenty-five μl were added to appropriate wells in the assay plate. • 3. Cell membrane aliquots were thawed and diluted to their working concentration. Fifty μl were added to each well in the assay plate. • 4. WGA SPA beads were suspended in assay buffer at 20 mg/ml. The suspension was diluted to 10 mg/ml in assay buffer just prior to addition to the assay plate. Fifty μl were added to each well in the assay plate. • 5. The incubation was started by adding 25 μl of 480 pM solution of [125I]-glucagon to each well of the assay plate. A 25 μl aliquot was reserved for measuring total counts/well. • 6. The assay plate was incubated for 2 h at 25° C. • 7. The assay plate was centrifuged for 10 min at 1500 rpm. • 8. The assay plate was read in a Perkin Elmer TopCount NXT instrument. Calculations The data from the TopCount instrument were transferred to GraphPad Prism software. The software averaged the values for the replicates and performed a non-linear regression. […]
# T1 sequence (P47871 26-477): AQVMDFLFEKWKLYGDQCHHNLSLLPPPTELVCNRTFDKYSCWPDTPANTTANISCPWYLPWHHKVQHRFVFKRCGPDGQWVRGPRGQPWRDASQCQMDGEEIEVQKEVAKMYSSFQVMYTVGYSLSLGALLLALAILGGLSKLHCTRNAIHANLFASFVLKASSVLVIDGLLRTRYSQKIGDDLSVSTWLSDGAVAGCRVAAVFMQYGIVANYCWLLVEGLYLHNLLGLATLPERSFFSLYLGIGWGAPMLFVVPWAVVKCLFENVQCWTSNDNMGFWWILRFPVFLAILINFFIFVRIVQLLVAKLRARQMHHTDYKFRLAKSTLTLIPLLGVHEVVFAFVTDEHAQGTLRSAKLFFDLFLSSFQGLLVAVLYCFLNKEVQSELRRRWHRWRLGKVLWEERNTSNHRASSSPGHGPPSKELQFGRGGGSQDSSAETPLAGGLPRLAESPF
row,Compound,IC50 [nM]
1,"CC[C@H](C)[C@H](NC(=O)[C@H](Cc1ccccc1)NC(=O)[C@H](CCC(=O)O)NC(=O)[C@H](CCCNC(=N)N)NC(=O)[C@H](C)NC(=O)[C@H](C)NC(=O)[C@H](CCC(N)=O)NC(=O)[C@H](CCC(=O)O)NC(=O)[C@H](CCC(=O)O)NC(=O)[C@H](CC(C)C)NC(=O)[C@H](Cc1ccc(O)cc1)NC(=O)[C@H](CCCCN)NC(=O)[C@H](CO)NC(=O)[C@@H](NC(=O)[C@H](CC(=O)O)NC(=O)[C@H](CO)NC(=O)[C@@H](NC(=O)[C@H](Cc1ccccc1)NC(=O)[C@@H](NC(=O)CNC(=O)[C@H](Cc1c[nH]cn1)NC(=O)C(C)(C)NC(=O)CCc1c[nH]cn1)[C@@H](C)O)[C@@H](C)O)C(C)C)C(=O)N[C@@H](C)C(=O)N[C@@H](Cc1c[nH]c2ccccc12)C(=O)N[C@@H](CC(C)C)C(=O)N[C@@H](CC(C)C)C(=O)N[C@@H](CCCCNC(=O)CNC(=O)[C@H](CO)NC(=O)CC[C@H](NC(=O)CC[C@H](NC(=O)CCCCCCCCCCCCCCCCC(=O)O)C(=O)O)C(=O)O)C(=O)N[C@H](C(N)=O)[C@@H](C)O [Example 4, N^ε34-[2-[[(2S)-2-[[(4S)-4-carboxy-4-[[(4S)-4-carboxy-4-(17-carboxyheptadecanoylamino)butanoyl]amino]butanoyl]amino]-3-hydroxypropanoyl]amino]acetyl]-[Imp7,Aib8,His9,Lys18,Glu22,Arg26,Leu33,Thr35]-GLP-1-(7-35)-peptide amide] (Desaminohistidyl-[Aib]HGTFTSDVSKYLEEQAAREFIAWLLK([Gly-Ser-γGlu-γGlu-C18 diacid])T-NH2)",4.3
2,"CC[C@H](C)[C@H](NC(=O)[C@H](Cc1ccccc1)NC(=O)[C@H](CCC(=O)O)NC(=O)[C@H](CCCNC(=N)N)NC(=O)[C@H](C)NC(=O)[C@H](C)NC(=O)[C@H](CCC(N)=O)NC(=O)[C@H](CCC(=O)O)NC(=O)[C@H](CCC(=O)O)NC(=O)[C@H](CC(C)C)NC(=O)[C@H](Cc1ccc(O)cc1)NC(=O)[C@H](CCCCN)NC(=O)[C@H](CO)NC(=O)[C@@H](NC(=O)[C@H](CC(=O)O)NC(=O)[C@H](CO)NC(=O)[C@@H](NC(=O)[C@H](Cc1ccccc1)NC(=O)[C@@H](NC(=O)CNC(=O)[C@H](Cc1c[nH]cn1)NC(=O)C(C)(C)NC(=O)CCc1c[nH]cn1)[C@@H](C)O)[C@@H](C)O)C(C)C)C(=O)N[C@@H](C)C(=O)N[C@@H](Cc1c[nH]c2ccccc12)C(=O)N[C@@H](CC(C)C)C(=O)N[C@@H](CC(C)C)C(=O)N[C@@H](CCCCNC(=O)COCCOCCNC(=O)COCCOCCNC(=O)CC[C@H](NC(=O)CC[C@H](NC(=O)CCCCCCCCCCCCCCCCC(=O)O)C(=O)O)C(=O)O)C(=O)N[C@H](C(N)=O)[C@@H](C)O [Example 5, N^ε34-[2-[2-[2-[[2-[2-[2-[[(4S)-4-carboxy-4-[[(4S)-4-carboxy-4-(17-carboxyheptadecanoylamino)butanoyl]amino]butanoyl]amino]ethoxy]ethoxy]acetyl]amino]ethoxy]ethoxy]acetyl]-[Imp7,Aib8,His9,Lys18,Glu22,Arg26,Leu33,Thr35]-GLP-1-(7-35)-peptide amide] (Desaminohistidyl-[Aib]HGTFTSDVSKYLEEQAAREFIAWLLK([AEEA-AEEA-γGlu-γGlu-C18 diacid])T-NH2)",4.3
3,"CC[C@H](C)[C@H](NC(=O)[C@H](Cc1ccccc1)NC(=O)[C@H](CCC(=O)O)NC(=O)[C@H](CCCNC(=N)N)NC(=O)[C@H](C)NC(=O)[C@H](C)NC(=O)[C@H](CCCNC(=N)N)NC(=O)[C@H](C)NC(=O)[C@H](CCC(=O)O)NC(=O)[C@H](CC(C)C)NC(=O)[C@H](Cc1ccc(O)cc1)NC(=O)[C@H](CCCCN)NC(=O)[C@H](CO)NC(=O)[C@@H](NC(=O)[C@H](CC(=O)O)NC(=O)[C@H](CO)NC(=O)[C@@H](NC(=O)[C@H](Cc1ccccc1)NC(=O)[C@@H](NC(=O)CNC(=O)[C@H](Cc1c[nH]cn1)NC(=O)C(C)(C)NC(=O)CCc1c[nH]cn1)[C@@H](C)O)[C@@H](C)O)C(C)C)C(=O)N[C@@H](C)C(=O)N[C@@H](Cc1c[nH]c2ccccc12)C(=O)N[C@@H](CC(C)C)C(=O)N[C@@H](CC(C)C)C(=O)N[C@@H](CCCCNC(=O)CC[C@H](NC(=O)COCCOCCNC(=O)COCCOCCNC(=O)CC[C@H](NC(=O)CC[C@H](NC(=O)CCCCCCCCCCCCCCCCC(=O)O)C(=O)O)C(=O)O)C(=O)O)C(=O)NCC(=O)NCC(=O)NCC(=O)O [Example 31, N^ε34-[(4S)-4-carboxy-4-[[2-[2-[2-[[2-[2-[2-[[(4S)-4-carboxy-4-[[(4S)-4-carboxy-4-(17-carboxyheptadecanoylamino)butanoyl]amino]butanoyl]amino]ethoxy]ethoxy]acetyl]amino]ethoxy]ethoxy]acetyl]amino]butanoyl]-[Imp7,Aib8,His9,Lys18,Ala22,Arg23,Arg26,Leu33,Gly36]-GLP-1-(7-37)-peptide] (Desaminohistidyl-[Aib]HGTFTSDVSKYLEARAAREFIAWLLK([γGlu-AEEA-AEEA-γGlu-γGlu-C18 diacid])GGG-OH)",3.7
4,"CC[C@H](C)[C@H](NC(=O)[C@H](Cc1ccccc1)NC(=O)[C@H](CCC(=O)O)NC(=O)[C@H](CCCNC(=N)N)NC(=O)[C@H](C)NC(=O)[C@H](C)NC(=O)[C@H](CCCNC(=N)N)NC(=O)CNC(=O)[C@H](CCC(=O)O)NC(=O)[C@H](CC(C)C)NC(=O)[C@H](Cc1ccc(O)cc1)NC(=O)[C@H](CCCNC(=N)N)NC(=O)[C@H](CO)NC(=O)[C@@H](NC(=O)[C@H](CC(=O)O)NC(=O)[C@H](CO)NC(=O)[C@@H](NC(=O)[C@H](Cc1ccccc1)NC(=O)[C@@H](NC(=O)CNC(=O)[C@H](Cc1c[nH]cn1)NC(=O)C(C)(C)NC(=O)CCc1c[nH]cn1)[C@@H](C)O)[C@@H](C)O)C(C)C)C(=O)N[C@@H](C)C(=O)N[C@@H](Cc1c[nH]c2ccccc12)C(=O)N[C@@H](CC(C)C)C(=O)N[C@@H](CC(C)C)C(=O)N[C@@H](CCCCNC(=O)CC[C@H](NC(=O)CC[C@H](NC(=O)COCCOCCNC(=O)CC[C@H](NC(=O)CC[C@H](NC(=O)CCCCCCCCCCCCCCCCC(=O)O)C(=O)O)C(=O)O)C(=O)O)C(=O)O)C(=O)NCC(=O)N[C@@H](C)C(=O)NCC(=O)O [Example 35, N^ε34-[(4S)-4-carboxy-4-[[(4S)-4-carboxy-4-[[2-[2-[2-[[(4S)-4-carboxy-4-[[(4S)-4-carboxy-4-(17-carboxyheptadecanoylamino)butanoyl]amino]butanoyl]amino]ethoxy]ethoxy]acetyl]amino]butanoyl]amino]butanoyl]-[Imp7,Aib8,His9,Arg18,Arg23,Arg26,Leu33,Ala36]-GLP-1-(7-37)-peptide] (Desaminohistidyl-[Aib]HGTFTSDVSRYLEGRAAREFIAWLLK([γGlu-γGlu-AEEA-γGlu-γGlu-C18 diacid])GAG-OH)",18.8
